Source: patent US5580982A, “Substituted 3-(aminoalkylamino)-1,2-benzisoxazoles and related compounds” (priority 1995, dated 1996)

Legend:
MAO-B = target: T1, MAO-B (Rattus norvegicus, UniProt P19643); assay: Inhibition of Type B monoamine oxidase activity in rat brain synaptosomes; type: biochemical; details: substrate [^14 C]-PEA 200 μM; read-out: Inhibitory Concentration - IC50 MAO-B
T1 construct: the whole brain without cerebellum was dissected rapidly and frozen on dry ice; from tissue; host or cells: whole brain without cerebellum of orally dosed male Wistar rats, homogenate
T1 sequence (P19643 1-520): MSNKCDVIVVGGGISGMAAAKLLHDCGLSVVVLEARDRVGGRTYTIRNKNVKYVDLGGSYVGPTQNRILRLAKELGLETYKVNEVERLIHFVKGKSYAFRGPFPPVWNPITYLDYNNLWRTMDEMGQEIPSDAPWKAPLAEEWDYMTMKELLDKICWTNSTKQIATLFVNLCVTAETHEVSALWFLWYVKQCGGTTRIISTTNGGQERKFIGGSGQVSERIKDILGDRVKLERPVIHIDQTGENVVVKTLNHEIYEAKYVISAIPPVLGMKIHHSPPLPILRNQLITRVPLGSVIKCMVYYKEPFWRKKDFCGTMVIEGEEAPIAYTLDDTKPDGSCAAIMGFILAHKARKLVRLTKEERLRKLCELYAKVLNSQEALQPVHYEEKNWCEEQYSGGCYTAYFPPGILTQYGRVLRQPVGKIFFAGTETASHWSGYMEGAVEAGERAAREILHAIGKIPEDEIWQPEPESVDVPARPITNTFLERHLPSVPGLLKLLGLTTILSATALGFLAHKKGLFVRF
Text: Male Wistar rats weighing 150-250 grams were sacrificed and the brains rapidly removed.

MAO-A = target: T2, MAO-A (Rattus norvegicus, UniProt P21396); assay: Inhibition of Type A monoamine oxidase activity in rat brain synaptosomes; type: biochemical; details: substrate [^3 H]-5HT 200 μM; read-out: Inhibitory Concentration - IC50 MAO-A
T2 construct: the whole brain without cerebellum was dissected rapidly and frozen on dry ice; from tissue; host or cells: whole brain without cerebellum of orally dosed male Wistar rats, homogenate
T2 sequence (P21396 1-526): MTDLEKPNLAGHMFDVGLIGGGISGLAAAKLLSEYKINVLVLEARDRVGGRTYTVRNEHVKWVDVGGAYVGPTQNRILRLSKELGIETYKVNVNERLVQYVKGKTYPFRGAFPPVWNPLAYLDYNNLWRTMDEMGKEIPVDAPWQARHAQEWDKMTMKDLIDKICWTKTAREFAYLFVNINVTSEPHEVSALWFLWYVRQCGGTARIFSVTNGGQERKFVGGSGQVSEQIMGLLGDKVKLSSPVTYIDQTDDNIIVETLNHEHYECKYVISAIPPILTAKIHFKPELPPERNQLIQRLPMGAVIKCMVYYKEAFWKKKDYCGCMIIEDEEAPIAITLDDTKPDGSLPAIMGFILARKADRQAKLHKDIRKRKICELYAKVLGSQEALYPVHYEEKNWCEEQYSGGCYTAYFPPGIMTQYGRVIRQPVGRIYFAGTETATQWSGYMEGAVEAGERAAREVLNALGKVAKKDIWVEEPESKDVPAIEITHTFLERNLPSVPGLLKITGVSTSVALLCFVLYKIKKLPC
Description: Inhibition of Type A and Type B Monoamine Oxidase Activity in Rat Brain Synaptosomes
To determine the selective inhibition of the two forms of monoamine oxidase (MAO).
Although various methods for measuring MAO activity are available, the described method involves the extraction of the radiolabeled deaminated metabolites of [^3 H]-5HT or [^14 C]-β-phenethylamine. This procedure allows MAO-A and MAO-B activities to be measured either simultaneously or individually (3).
c. Add 12 μl of [^3 H]-5HT to 2 ml of the 5 mM 5HT solution. (Final amine concentration in the assay is 200 μM: see below.)
5. Equal amounts of MAO-A (5HT) and MAO-B (PEA) substrates are combined for simultaneously testing both MAO types, i.e. mixed stock solution of 2.5 mM 5HT and 2.5 mM PEA, 40 μl of this mixed solution gives a 200 μM final concentration of each amine in the assay. When testing only one MAO type, the individual 5 mM stock solutions must be diluted 1:1 with distilled water prior to adding 40 μl to the incubation mixture; i.e., same 200 μM final amine concentration.
Male Wistar rats weighing 150-250 grams were sacrificed and the brains rapidly removed. Whole brain minus cerebellum was homogenized in 30 volumes of ice-cold, phosphate-buffered 0.25M sucrose, using a Potter-Elvejhem homogenizer. The homogenate was centrifuged at 1000 g for 10 minutes and the supernatant (S1) decanted and recentrifuged at 18,000 g for 20 minutes. The resulting pellet (P2) was resuspended in fresh 0.25M sucrose and served as the tissue source for mitochondrial MAO.
Tubes are preincubated for 15 minutes at 37° C. and the assay is started by adding 40 μl of combined substrate ([^3 H]-5HT and [^14 C]-PEA) at 15 second intervals. The tubes are incubated for 30 minutes at 37° C. and the reaction stopped by the addition of 0.3 ml 2N HCl. Tissue blank values are determined by adding the acid before the radioactive substrate. The oxidative products of the reaction are extracted with ethyl acetate/toluene (1:1). 5 ml of this mixture is added to the tubes. The resultant mixture is vortexed for 15 seconds to extract the deaminated metabolites into the organic phase and the latter is allowed to separate from the aqueous phase. The tubes are placed in acetone/dry ice bath to freeze the aqueous layer. When this layer is frozen, the top organic layer is poured into a scintillation vial. 10 ml of Liquiscint is added and the samples are counted using window settings for ^14 C in one channel and ^3 H in the second channel. IC50 values are determined by log-probit analysis.

COc1ccc2c(N3CCN(c4ccncc4)CC3)noc2c1 [6-Methoxy-3-[1-(4-pyridyl)piperazinyl)]-1,2-benzisoxazole]
IC50 (MAO-B): 45 µM | IC50 (MAO-A): 10 µM

COc1ccc2c(N(C)CCN3CCOCC3)noc2c1 [6-Methoxy-N-methyl-N-[2-(4-morpholinyl)ethyl]-1,2-benzisoxazol-3-amine]
IC50 (MAO-B): > 1000 µM | IC50 (MAO-A): 13 µM
